The record followed here is ChEMBL document CHEMBL1201862, “PubChem BioAssay data set” (2004).

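Briefly, cells in 96-well plates were exposed to five compound concentrations for 48 h, and endpoints were estimated by linear interpolation. GI50 is the concentration that inhibits growth by half.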 Active and inactive are the calls of the source. Cut-off read from the data, not from the text of the source: active = GI50 up to about 1.1 µM and inactive = higher.

Test systems include SF-268; HCC 2998; SR; TK-10; SW-620; MDA-MB-231; RXF 393; SF-539; PC-3; OVCAR-3; NCI-H226; MDA-MB-435; NCI/ADR-RES; IGROV-1; U-251; HCT-15; HCT-116; SN12C; OVCAR-4; T47D.
Holding throughout (test): NCI-60 cell line screen, 48 h

Consider `Cc1cc(-c2nc3ccc(F)cc3s2)ccc1N`, for which the GI50 in the test on SF-268 was > 100 µM (inactive); in the test with HCC 2998, 38.9 µM (inactive); in the test on SR, > 100 µM (inactive); in the test on TK-10, < 0.01 µM (active); in the test with SW-620 it was > 100 µM (inactive); in the test with MDA-MB-231 it was > 100 µM (inactive). For the same compound, the GI50 in the test with RXF 393 is 49.8 µM (inactive); with SF-539, 43.5 µM (inactive); in the test with PC-3 it was 63.5 µM (inactive); in the test with OVCAR-3, > 100 µM (inactive); in the test with NCI-H226 it was 59.8 µM (inactive); in the test with MDA-MB-435, > 100 µM (inactive). Also, the GI50 is > 100 µM (inactive) in the test on NCI/ADR-RES; 1.28 µM (inactive) in the test on IGROV-1; > 100 µM (inactive) with U-251; over 100 µM in the test with HCT-15; > 100 µM (inactive) with HCT-116; > 100 µM (inactive) with SN12C.

For `CCOC(=O)/C(=C\NCC(O)c1ccccc1)c1nc2ccccc2[nH]1` (stereo not given), the GI50 is 17.3 µM (inactive) in the test on SF-268; 20.4 µM (inactive) with HCC 2998; 17.5 µM (inactive) in the test on SR; 26.1 µM (inactive) with TK-10; 31.4 µM (inactive) in the test with SW-620; 27.4 µM (inactive) in the test on RXF 393. Also, the GI50 in the test on SF-539 was 21.1 µM (inactive); in the test on OVCAR-3 it was 34.7 µM (inactive); in the test on OVCAR-4 it was 23.8 µM (inactive); in the test on MDA-MB-435, 20.9 µM (inactive); with NCI/ADR-RES, 20.8 µM (inactive); in the test on IGROV-1, 20.1 µM (inactive). Also, the GI50 in the test with HCT-15 was 21.6 µM; with HCT-116 it was 28.6 µM (inactive); in the test with SN12C, 31.9 µM (inactive).

Take `C=C(Br)C(Br)(CCl)CCC(Cl)C(C)C.C=C(Cl)C(Br)(CCl)CCC(Cl)C(C)C` (stereo not given): the GI50 in the test with SF-268 was 1.75 µM (inactive); with HCC 2998 it was 3.01 µM (inactive); in the test with SR, 0.442 µM (active); in the test with TK-10 it was 2.14 µM (inactive); with SW-620, 1.53 µM (inactive); in the test with MDA-MB-231, 1.24 µM (inactive). Moreover, the GI50 in the test on RXF 393 was 2.18 µM (inactive); with SF-539, 1.94 µM (inactive); in the test with PC-3 it was 2.91 µM (inactive); in the test on OVCAR-3 it was 2.29 µM (inactive); in the test on OVCAR-4, 1.94 µM (inactive); with NCI-H226, 3.69 µM (inactive). Besides, the GI50 was 1.93 µM (inactive) in the test with MDA-MB-435; 1.94 µM (inactive) with NCI/ADR-RES; 1.88 µM (inactive) in the test on IGROV-1; 1.75 µM (inactive) in the test with U-251; 1.75 µM (inactive) with HCT-116; 1.66 µM (inactive) in the test with SN12C.

Take `CCC/C(Cl)=N\OC(=O)Nc1ccc(F)c([N+](=O)[O-])c1`: the GI50 in the test on SF-268 is 14.2 µM (inactive); with HCC 2998, 14.5 µM (inactive); in the test with TK-10 it was 17 µM (inactive); in the test on SW-620, 4.8 µM (inactive); in the test with MDA-MB-231 it was 20.3 µM (inactive); in the test with SF-539 it was 24 µM (inactive). In addition, the GI50 with PC-3 was 15.2 µM (inactive); in the test with OVCAR-3, 15.6 µM (inactive); in the test with OVCAR-4, 15.6 µM (inactive); in the test on NCI-H226, 24.2 µM (inactive); with MDA-MB-435, 16.2 µM (inactive); with NCI/ADR-RES, 17.9 µM (inactive). For the same compound, the GI50 in the test on IGROV-1 was 15.3 µM (inactive); with U-251, 18.3 µM (inactive); with HCT-15, 16.9 µM; with HCT-116 it was 26.2 µM (inactive); in the test with SN12C, 27.2 µM (inactive).

On to `C=CCc1ccc(O)c(-c2cc(C3Oc4c(-c5cc(CC=C)ccc5O)cc(O)cc4[C@@H]3CO)ccc2O)c1` (stereo not given in full), for which the GI50 in the test with SF-268 was 30.3 µM (inactive); with HCC 2998, 22.1 µM (inactive); with SR it was 14.4 µM (inactive); in the test with TK-10 it was 66.1 µM (inactive); in the test with SW-620, 15.7 µM (inactive); in the test on RXF 393, 21.2 µM (inactive). The GI50 is 24 µM (inactive) with SF-539; 20.1 µM (inactive) in the test with OVCAR-3; 36.9 µM (inactive) in the test with OVCAR-4; 53.8 µM (inactive) in the test on NCI-H226; 20.3 µM (inactive) in the test on IGROV-1; 25.2 µM (inactive) in the test with U-251. In addition, the GI50 in the test with HCT-15 was 15.8 µM; in the test on HCT-116 it was 23.7 µM (inactive); in the test on SN12C it was 32.9 µM (inactive).

Take `O=C(O)CSc1nnc(-c2ccccc2O)[nH]1`: the GI50 in the test on SF-268, in the test on HCC 2998, in the test on SR, in the test with TK-10, with SW-620 and in the test with RXF 393 was > 100 µM (inactive) throughout. Further, the GI50 with SF-539, with OVCAR-3, with OVCAR-4, in the test with NCI-H226, in the test with IGROV-1 and with U-251 was > 100 µM (inactive) each time. Moreover, the GI50 in the test on HCT-15 is over 100 µM; in the test with HCT-116 it was > 100 µM (inactive); with SN12C, > 100 µM (inactive).

As to `CC1=CC(=C(c2ccc(N)c(C)c2)c2ccc(N)c(C)c2)C=CC1=N`, the GI50 with SF-268 is 0.499 µM (active); with HCC 2998 it was 3.44 µM (inactive); in the test on SR it was 2.99 µM (inactive); in the test with TK-10, 15.5 µM (inactive); with SW-620 it was 3.8 µM (inactive); in the test on RXF 393, 5.92 µM (inactive). Besides, the GI50 was 2.67 µM (inactive) in the test with SF-539; 4.49 µM (inactive) with OVCAR-3; 10.5 µM (inactive) with OVCAR-4; 3.93 µM (inactive) in the test on NCI-H226; 13.4 µM (inactive) with IGROV-1; 0.411 µM (active) in the test with U-251. Besides, the GI50 in the test on HCT-15 is 12.8 µM; with HCT-116, 3.37 µM (inactive); with SN12C, 0.33 µM (active).

Take `CCCC/N=C(/c1ccccc1)N1CCOCC1`: the GI50 with SF-268, in the test on SR, in the test with TK-10, with SW-620, in the test with MDA-MB-231 and with RXF 393 was > 100 µM (inactive) each time. For the same compound, the GI50 in the test with SF-539, in the test on PC-3, with OVCAR-3, in the test with NCI-H226, in the test on MDA-MB-435 and in the test on NCI/ADR-RES was > 100 µM (inactive) each time. For the same compound, the GI50 is > 100 µM (inactive) in the test on IGROV-1; > 100 µM (inactive) with U-251; over 100 µM with HCT-15; > 100 µM (inactive) in the test on HCT-116; > 100 µM (inactive) in the test on SN12C.

Turning to `COc1cc2cc(C(=O)N3CC(CCl)c4c3cc(O)c3ccccc43)[nH]c2c(OC)c1OC` (stereo not given), the GI50 in the test with SF-268, in the test on HCC 2998, in the test on SR, in the test with TK-10, in the test with SW-620 and in the test on RXF 393 was < 0.005 µM (active) each time. Moreover, the GI50 in the test on SF-539, in the test with PC-3, in the test with T47D, in the test on OVCAR-3, in the test on OVCAR-4 and with NCI-H226 was < 0.005 µM (active) in each case. Further, the GI50 is < 0.005 µM (active) in the test on MDA-MB-435; < 0.005 µM (active) in the test with NCI/ADR-RES; < 0.005 µM (active) in the test with U-251; under 0.005 µM with HCT-15; < 0.005 µM (active) with HCT-116.

`CC(C)(C)[Si](C)(C)OCc1cccc(OCCOc2cccc(CO[Si](C)(C)C(C)(C)C)c2[N+](=O)[O-])c1[N+](=O)[O-]`: the GI50 was > 100 µM (inactive) in the test with SF-268; 66.2 µM (inactive) with SR; > 100 µM (inactive) with TK-10; > 100 µM (inactive) with SW-620; > 100 µM (inactive) with RXF 393; > 100 µM (inactive) in the test with SF-539. In addition, the GI50 in the test with PC-3, with T47D, in the test on OVCAR-3, in the test with OVCAR-4, in the test with NCI-H226 and in the test on MDA-MB-435 was > 100 µM (inactive) in each case. Besides, the GI50 is > 100 µM (inactive) in the test with NCI/ADR-RES; > 100 µM (inactive) in the test with IGROV-1; > 100 µM (inactive) in the test with U-251; over 100 µM with HCT-15; > 100 µM (inactive) with HCT-116; > 100 µM (inactive) in the test on SN12C.

With `C/C(=N/O)c1ccc2c(c1)/C(=N/O)c1cc(/C(C)=N/O)ccc1-2`, the GI50 in the test with SF-268 is 14.9 µM (inactive); with HCC 2998, 15.3 µM (inactive); in the test on SR it was 3.45 µM (inactive); in the test with TK-10, > 10 µM (inactive); in the test with SW-620, 14.5 µM (inactive); with RXF 393, 23 µM (inactive). In addition, the GI50 with SF-539 is 15.5 µM (inactive); in the test with OVCAR-3, 20.3 µM (inactive); in the test on OVCAR-4, 16.3 µM (inactive); in the test with NCI-H226, 11.2 µM (inactive); in the test with IGROV-1, 21.1 µM (inactive); in the test with U-251, 15.3 µM (inactive). Further, the GI50 was 14.1 µM in the test with HCT-15, 20.1 µM (inactive) in the test with HCT-116 and 16.3 µM (inactive) in the test with SN12C.

With `COc1ccc(C(=O)C(c2ccc(OC)cc2)C2(O)C(=O)Nc3c(C)cc(Cl)cc32)cc1` (stereo not given), the GI50 in the test with SF-268 was 82.8 µM (inactive); with HCC 2998, > 100 µM (inactive); in the test on SR, 12.5 µM (inactive); with TK-10 it was > 100 µM (inactive); in the test with SW-620 it was > 100 µM (inactive); in the test with RXF 393, > 100 µM (inactive). The GI50 in the test on SF-539 was 69.8 µM (inactive); in the test on OVCAR-3, 52 µM (inactive); with OVCAR-4, 63.2 µM (inactive); in the test with NCI-H226, 76.6 µM (inactive); in the test with IGROV-1, 72.8 µM (inactive); in the test with U-251, 45.2 µM (inactive). Further, the values for the GI50 in the test with HCT-15, in the test on HCT-116 and with SN12C were over 100 µM, 70.3 µM (inactive) and 58.1 µM (inactive), respectively.
